pIC50: −log10 of the molar value.
Key:
[1] = system: TBK1-mediated phosphorylation of IRF7; assay: In-situ TBK1-mediated phosphorylation of IRF7 in HEK293T cells transfected with IRF7 and TBK1 (Western blot); format: cell-based
Experimental: HEK293T cells were cotransfected in a 10-cm dish with IRF3 and IKKε expression plasmids using Lipofectamine 2000 (Invitrogen, Carlsbad, Calif.). The following day, cells were replated at 20,000 per well in 96-well plates and treated with test compounds (compounds according to Formula I) for 20 hours. Cell lysates were prepared and analyzed using an ELISA for phospho-Ser396 (anti-IRF3 capture antibody, Santa Cruz Biotechnology, Inc., Santa Cruz, Calif.; anti-p-Ser396 IRF3 detection antibody, Cell Signaling, Danvers, Mass.). pIRF3 levels in compound treated cells were normalized to DMSO treated cells (no compound). Cell viability was assayed in a parallel set of plates to monitor cytotoxic effects of the test compounds (CellTiter-Glo, Promega, Inc., Madison, Wis.). TBK1 activity was tested by Western blotting using a phospho-specific IRF7 antibody. Similar to above, HEK293T cells were transfected with IRF7 and TBK1 expression plasmids. Cells were seeded in 12-well plates at 150,000 per well and treated overnight with test compounds. Protein lysates were prepared and processed for Western blotting followed by detection using a phosphor-Ser477/Ser479 IRF7 antibody (BD Biosciences, San Jose, Calif.)

IFN-β production = assay: Inhibition of IFN-β production (similar assay to HFLS-RA RANTES/IP-10); format: cell-based; conditions: Homo sapiens
Experimental: HFLS cells (HFLS-RA) isolated from patients with rheumatoid arthritis were obtained from Cell Applications, Inc. (San Diego, Calif.). Cells were seeded in synoviocyte growth medium (Cell Applications, Inc., San Diego, Calif.) and allowed to grow overnight. The following day, media was replaced and cells were treated with varying concentrations of selected compounds according to Formula I (e.g., Example Compound 5) (0.1% final DMSO concentration). Two hours later, cells were induced with 50 µg/mL Poly(I:C) (Sigma-Aldrich, St. Louis, Mo.). Supernatants were collected 20 hours post-induction and used to monitor RANTES and IP-10 levels using DuoSet ELISA kits (Human CXCL10/IP-10 DuoSet & Human CCL5/RANTES DuoSet; R&D Systems, Inc., Minneapolis, Minn.).
Using a similar assay Compound 5 was also found to inhibit production of IFN-β with an IC50 of about 40 nM

For N#Cc1cc(-c2ccnc(Nc3ccc(N4CCOCC4)cc3)n2)ccc1OC1CCOCC1 [Example 5, 5-(2-{[4-(Morpholin-4-yl)phenyl]amino}pyrimidin-4-yl)-2-(tetrahydro-2H-pyran-4-yloxy)benzaonitrile], the “inhibition of TBK1-mediated phosphorylation of IRF7” value [1] was “inhibit” and the pIC50 (IFN-β production) was about 7.40.

— patent US20150352108A1, “AMINO-PYRIMIDINE COMPOUNDS AS INHIBITORS OF TBK1 AND/OR IKK EPSILON” (Alzheimer's Institute of America, priority 2009, published 2015)
